According to patent publication US11339157B1, “4H-pyrrolo[3,2-c]pyridin-4-one derivatives” (Bayer Aktiengesellschaft, priority 2017, dated 2022):
“And” between values parts separate entries of the source, which are not always exact repeats. Equal entries are not always repeated. Where two headings read alike, the source gives them in different places.

Legend:
Bub1 = Bub1 (Homo sapiens (Human), UniProt O43683); experiment: Bub1 kinase assay (TR-FRET, 10 μM ATP); format: biochemical; settings: mean, read-out: Bub1 kinase assay IC50 [mol/l] (mean)
Source text: Bub1-inhibitory activities of compounds described in the present invention were quantified using a time-resolved fluorescence energy transfer (TR-FRET) kinase assay which measures phosphorylation of the synthetic peptide Biotin-Ahx-[…]—SEQ ID NO: 5 (C-terminus in amide form), purchased from e.g. Biosyntan (Berlin, Germany) by the (recombinant) catalytic domain of human Bub1 (amino acids 704-1085), expressed in Hi5 insect cells with an N-terminal His6-tag (SEQ ID NO: 9) and purified by affinity-(Ni-NTA) and size exclusion chromatography.
In a typical assay 11 different concentrations of each compound (0.1 nM, 0.33 nM, 1.1 nM, 3.8 nM, 13 nM, 44 nM, 0.15 μM, 0.51 μM, 1.7 μM, 5.9 μM and 20 μM) were tested in duplicate within the same microtiter plate. To this end, 100-fold concentrated compound solutions (in DMSO) were previously prepared by serial dilution (1:3.4) of 2 mM stocks in a clear low volume 384-well source microtiter plate (Greiner Bio-One, Frickenhausen, Germany), from which 50 nl of compounds were transferred into a black low volume test microtiter plate from the same supplier. […] The resulting mixture (5 μl final volume) was incubated at 22° C. during 60 min., and the reaction was stopped by the addition of 5 μl of an aqueous EDTA-solution (50 mM EDTA, in 100 mM HEPES pH 7.5 and 0.2% (w/v) bovine serum albumin) which also contained the TR-FRET detection reagents (0.2 μM streptavidin-XL665 [Cisbio Bioassays, Codolet, France] and 1 nM anti-phosho-Serine antibody [Merck Millipore, cat. #35-002] and 0.4 nM LANCE EU-W1024 labeled anti-mouse IgG antibody [Perkin-Elmer, product no. AD0077, alternatively a Terbium-cryptate-labeled anti-mouse IgG antibody from Cisbio Bioassays can be used]). The stopped reaction mixture was further incubated 1 h at 22° C. in order to allow the formation of complexes between peptides and detection reagents. Subsequently, the amount of product was evaluated by measurement of the resonance energy transfer from the Eu-chelate-antibody complex recognizing the Phosphoserine residue to the streptavidin-XL665 bound to the biotin moiety of the peptide. To this end, the fluorescence emissions at 620 nm and 665 nm after excitation at 330-350 nm were measured in a TR-FRET plate reader, e.g. a Rubystar or Pherastar (both from BMG Labtechnologies, Offenburg, Germany) or a Viewlux (Perkin-Elmer) and the ratio of the emissions (665 nm/[…]) was taken as indicator for the amount of phosphorylated substrate. The data were normalised using two sets of control wells for high-(=enzyme reaction without inhibitor=0%=Minimum inhibition) and low-(=all assay components without enzyme=100%=Maximum inhibition) Bub1 activity. IC50 values were calculated by fitting the normalized inhibition data to a 4-parameter logistic equation (Minimum, Maximum, IC50, Hill; Y=Max+(Min−Max)/(1+(X/IC50)Hill)).

Ba/F3-EGFR-insSVD cells = experiment: Proliferation assay in BA/F3 (ins SVD) cells (Cell Titer-Glo); format: cell-based
Procedure, shortened: (§1)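 Ba/F3 cells stably expressing retrovirally transduced EGFR-WT or EGFR-insSVD; WT cells plated with 10 ng/mL EGF, insSVD cells without EGF. Compound exposure 48 h at 37° C; viability read by CellTiter-Glo luminescence.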

Ba/F3-EGFR-WT cells = experiment: Proliferation assay in BA/F3 (wild type) cells (Cell Titer-Glo); format: cell-based; settings: Mus musculus
Procedure, shortened: as §1

[1] = molecular target: EGFR ins SVD (insertion of SVD between D770 and N771) (Homo sapiens, UniProt P00533, INS767SVD); experiment: Exon 20-Mutant-EGFR(D770_N771insSVD) kinase assay (TR-FRET); format: biochemical
Experimental: Exon 20-Mutant-EGFR(D770_N771insSVD) Kinase Assay
Inhibitory activity of compounds of the present invention against an Epidermal Growth Factor Receptor (EGFR) with an insertion of the amino acids sequence SVD between D770 and N771 was quantified employing the TR-FRET based kinase activity assay as described in the following paragraphs.
For the assay 50 nl of a 100-fold concentrated solution of the test compound in DMSO was pipetted into either a black low volume 384 well microtiter plate or a black 1536 well microtiter plate (both Greiner Bio-One, Frickenhausen, Germany), 2 μl of a solution of EGFR in aqueous assay buffer [50 mM Hepes pH 7.0, 10 mM MgCl2, 1 mM dithiothreitol, 0.5 mM EGTA, 0.3 mM activated sodium ortho-vanadate, 0.005% (w/v) bovine serum albumin, 0.005% (v/v) Tween-20] were added and the mixture was incubated for 15 min at 22° C. to allow pre binding of the test compounds to the enzyme before the start of the kinase reaction. […] The concentration of EGFR was adjusted depending of the activity of the enzyme lot and was chosen appropriate to have the assay in the linear range, typical concentration was 15 pg/μl. The reaction was stopped by the addition of 3 μl of a solution of HTRF detection reagents (83.3 nM streptavidine-XL665 [Cisbio Bioassays, Codolet, France] and 1.67 nM PT66-Tb-Cryptate, a terbium-cryptate labelled anti-phospho-tyrosine antibody from Cisbio Bioassays [instead of the PT66 Tb cryptate PT66 Eu Chelate from Perkin Elmer can also be used]) in an aqueous EDTA-solution (133.3 mM EDTA, 0.2% (w/v) bovine serum albumin in 50 mM HEPES pH 7.5).
(§2) The resulting mixture was incubated 1 h at 22° C. to allow the binding of the biotinylated phosphorylated peptide to the streptavidine-XL665 and the PT66-Tb-Cryptate. Subsequently the amount of phosphorylated substrate was evaluated by measurement of the resonance energy transfer from the PT66-Tb-Cryptate to the streptavidine-XL665.

[2] = molecular target: EGFR ins ASV (insertion of ASV between V769 and D770); experiment: Exon 20-Mutant-EGFR(V769_D770insASV) kinase assay (TR-FRET); format: biochemical, human; settings: 2 mM ATP
Experimental: Exon 20-Mutant-EGFR(V769_D770insASV) Kinase Assay
Inhibitory activity of compounds of the present invention against an Epidermal Growth Factor Receptor (EGFR) with an insertion of the amino acids sequence ASV between V769 and D770 was quantified employing the TR-FRET based kinase activity assay as described in the following paragraphs.
For the assay 50 nl of a 100-fold concentrated solution of the test compound in DMSO was pipetted into either a black low volume 384well microtiter plate or a black 1536 well microtiter plate (both Greiner Bio-One, Frickenhausen, Germany), 2 μl of a solution of EGFR in aqueous assay buffer [50 mM Hepes pH 7.0, 10 mM MgCl2, 1 mM dithiothreitol, 0.5 mM EGTA, 0.3 mM activated sodium ortho-vanadate, 0.005% (w/v) bovine serum albumin, 0.005% (v/v) Tween-20] were added and the mixture was incubated for 15 min at 22° C. to allow pre binding of the test compounds to the enzyme before the start of the kinase reaction. […] The concentration of EGFR was adjusted depending of the activity of the enzyme lot and was chosen appropriate to have the assay in the linear range, typical concentration was 2.5 pg/μl. The reaction was stopped by the addition of 3 μl of a solution of HTRF detection reagents (83.3 nM streptavidine-XL665 [Cisbio Bioassays, Codolet, France] and 1.67 nM PT66-Tb-Cryptate, an terbium-cryptate labelled anti-phospho-tyrosine antibody from Cisbio Bioassays [instead of the PT66 Tb cryptate PT66 Eu Chelate from Perkin Elmer can also be used]) in an aqueous EDTA-solution (133.3 mM EDTA, 0.2% (w/v) bovine serum albumin in 50 mM HEPES pH 7.5).
as §2

[3] = Mus musculus, BaF3, 48 h, Table 10, plated without EGF
[4] = BaF3, 48 h, Table 10, plated with 10 ng/mL EGF
[5] = Mus musculus, BaF3, Table 10, plated without EGF, 48 h
[6] = 2 mM ATP, mean, read-out: EGFR ins SVD IC50 [mol/l] (mean)
[7] = Table 9, read-out: mutEGFR (D770_N771insSVD) kinase assay IC50
[8] = BaF3, Table 10, plated with 10 ng/mL EGF, 48 h

Chain of Bub1 (O43683 704-1085): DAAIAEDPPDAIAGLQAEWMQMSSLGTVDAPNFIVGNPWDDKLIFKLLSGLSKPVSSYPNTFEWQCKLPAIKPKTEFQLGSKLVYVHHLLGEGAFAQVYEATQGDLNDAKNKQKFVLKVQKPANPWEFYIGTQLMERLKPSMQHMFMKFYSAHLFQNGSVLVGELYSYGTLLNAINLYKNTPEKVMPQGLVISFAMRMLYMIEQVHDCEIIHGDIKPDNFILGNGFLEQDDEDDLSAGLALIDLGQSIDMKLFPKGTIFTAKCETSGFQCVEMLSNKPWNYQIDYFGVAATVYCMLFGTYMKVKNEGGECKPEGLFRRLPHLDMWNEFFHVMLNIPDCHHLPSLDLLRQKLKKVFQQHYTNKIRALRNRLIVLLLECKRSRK
Chain of EGFR ins SVD (insertion of SVD between D770 and N771) (P00533 with tags, fused parts or gaps INS767SVD limits assumed): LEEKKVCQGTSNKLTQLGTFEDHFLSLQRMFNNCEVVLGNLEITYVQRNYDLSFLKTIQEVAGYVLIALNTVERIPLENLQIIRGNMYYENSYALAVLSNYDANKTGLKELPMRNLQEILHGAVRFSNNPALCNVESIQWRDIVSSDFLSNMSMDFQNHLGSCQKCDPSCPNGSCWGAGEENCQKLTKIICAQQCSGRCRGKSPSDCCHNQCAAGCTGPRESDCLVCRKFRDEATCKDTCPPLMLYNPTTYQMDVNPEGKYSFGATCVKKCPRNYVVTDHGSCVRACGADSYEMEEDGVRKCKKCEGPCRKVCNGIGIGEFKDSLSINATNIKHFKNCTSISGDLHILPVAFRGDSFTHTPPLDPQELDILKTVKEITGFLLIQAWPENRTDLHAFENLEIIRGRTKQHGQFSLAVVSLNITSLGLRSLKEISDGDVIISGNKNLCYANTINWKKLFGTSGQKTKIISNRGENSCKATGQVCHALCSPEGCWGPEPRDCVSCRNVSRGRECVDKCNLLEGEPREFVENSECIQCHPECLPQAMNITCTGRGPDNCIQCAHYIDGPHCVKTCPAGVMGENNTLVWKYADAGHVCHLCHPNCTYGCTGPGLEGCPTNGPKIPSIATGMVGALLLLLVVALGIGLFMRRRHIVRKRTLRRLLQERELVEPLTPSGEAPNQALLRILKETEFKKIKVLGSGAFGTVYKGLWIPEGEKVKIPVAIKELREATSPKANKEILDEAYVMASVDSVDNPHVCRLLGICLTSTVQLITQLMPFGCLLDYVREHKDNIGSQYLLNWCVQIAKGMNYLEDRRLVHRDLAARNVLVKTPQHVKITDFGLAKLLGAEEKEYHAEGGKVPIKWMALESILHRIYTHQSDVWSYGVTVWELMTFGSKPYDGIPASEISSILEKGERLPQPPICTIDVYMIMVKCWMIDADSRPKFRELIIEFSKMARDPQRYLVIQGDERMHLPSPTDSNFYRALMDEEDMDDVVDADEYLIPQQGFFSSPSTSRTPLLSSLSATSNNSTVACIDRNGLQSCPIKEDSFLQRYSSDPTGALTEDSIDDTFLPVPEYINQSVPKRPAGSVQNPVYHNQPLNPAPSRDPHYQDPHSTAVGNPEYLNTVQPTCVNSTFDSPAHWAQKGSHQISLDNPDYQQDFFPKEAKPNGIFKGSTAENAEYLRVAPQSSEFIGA

| Structure (SMILES) | IC50 (Bub1) [nM] | IC50 (Ba/F3-EGFR-insSVD cells; [3]) [nM] | IC50 (Ba/F3-EGFR-insSVD cells; Table 10, plated without EGF, 48 h) | IC50 (Ba/F3-EGFR-WT cells; [4]) [nM] | IC50 (Ba/F3-EGFR-insSVD cells; [5]) [nM] | IC50 [1, 6] [nM] | IC50 [1, 7] | EGFR ins ASV IC50 [mol] (mean) [2] | IC50 (Ba/F3-EGFR-WT cells; [8]) [nM] |
| --- | --- | --- | --- | --- | --- | --- | --- | --- | --- |
| COCCOc1cnccc1-c1[nH]c2c(c1Nc1ccccc1)C(=O)NCC2 [Example 1, 2-[3-(2-methoxyethoxy)pyridin-4-yl]-3-(phenylamino)-1,5,6,7-tetrahydro-4H-pyrrolo[3,2-c]pyridin-4-one] | 14.5 | – | – | – | – | – | – | – | – |
| CC(C)(C)CCOc1cnccc1-c1[nH]c2c(c1Nc1cccc(F)c1)C(=O)NCC2 [Example 2, 2-[3-(3,3-dimethylbutoxy)pyridin-4-yl]-3-[(3-fluorophenyl)amino]-1,5,6,7-tetrahydro-4H-pyrrolo[3,2-c]pyridin-4-one] | 44.1 | 6.8 | 7.49 nM and 8.81 nM and 7.48 nM and < 4.78 nM | 1870 | – | – | – | – | – |
| O=C1NCCc2[nH]c(-c3ccncc3OCc3ccccc3)c(Nc3cccc(F)c3)c21 [Example 3, 2-[3-(benzyloxy)pyridin-4-yl]-3-[(3-fluorophenyl)amino]-1,5,6,7-tetrahydro-4H-pyrrolo[3,2-c]pyridin-4-one] | 47.6 | – | – | – | 587 | 0.28 | 0.28 nM | 6.85e-09 | 2160 |
| CC(C)(O)COc1cnccc1-c1[nH]c2c(c1Nc1cccc(F)c1)C(=O)NCC2 [Example 4, 3-[(3-fluorophenyl)amino]-2-[3-(2-hydroxy-2-methylpropoxy)pyridin-4-yl]-1,5,6,7-tetrahydro-4H-pyrrolo[3,2-c]pyridin-4-one] | 12.5 | 329 | – | 1610 | – | < 0.072 | < 0.0725 nM | 1.31e-10 | – |
| CN(C)CCOc1cnccc1-c1[nH]c2c(c1Nc1cccc(F)c1)C(=O)NCC2 [Example 5, 2-{3-[2-(dimethylamino)ethoxy]pyridin-4-yl}-3-[(3-fluorophenyl)amino]-1,5,6,7-tetrahydro-4H-pyrrolo[3,2-c]pyridin-4-one] | 32.4 | 567 | – | – | – | 1.56 | 1.56 nM | 4.31e-09 | – |
| COC(C)(C)COc1cnccc1-c1[nH]c2c(c1Nc1cccc(F)c1)C(=O)NCC2 [Example 6, 3-[(3-fluorophenyl)amino]-2-[3-(2-methoxy-2-methylpropoxy)pyridin-4-yl]-1,5,6,7-tetrahydro-4H-pyrrolo[3,2-c]pyridin-4-one] | 26.9 | 63.3 | – | 394 | – | < 0.072 | < 0.0725 nM (2×) and 0.104 nM and 0.0949 nM | 2.12e-10 | – |
| CC(C)(COc1cnccc1-c1[nH]c2c(c1Nc1cccc(F)c1)C(=O)NCC2)N1CCOCC1 [Example 7, 3-[(3-fluorophenyl)amino]-2-{3-[2-methyl-2-(morpholin-4-yl)propoxy]pyridin-4-yl}-1,5,6,7-tetrahydro-4H-pyrrolo[3,2-c]pyridin-4-one] | 397 | – | – | – | 462 | 0.718 | 1.13 nM | – | 2700 |
| CN1CCC[C@H]1COc1cnccc1-c1[nH]c2c(c1Nc1cccc(F)c1)C(=O)NCC2 [Example 8, 3-[(3-fluorophenyl)amino]-2-(3-{[(2S)-1-methylpyrrolidin-2-yl]methoxy}pyridin-4-yl)-1,5,6,7-tetrahydro-4H-pyrrolo[3,2-c]pyridin-4-one] | 65.8 | – | – | – | 69.5 | 0.31 | 0.324 nM | – | 623 |
| COCCOc1cnccc1-c1[nH]c2c(c1Nc1cc(F)cc(F)c1)C(=O)NCC2 [Example 9, 3-[(3,5-difluorophenyl)amino]-2-[3-(2-methoxyethoxy)pyridin-4-yl]-1,5,6,7-tetrahydro-4H-pyrrolo[3,2-c]pyridin-4-one] | 27.2 | 121 | – | 376 | – | < 0.072 | 0.36 nM and 0.388 nM and 0.0776 nM and < 0.0725 nM and 0.1 nM and 0.0962 nM and 0.196 nM and 0.206 nM | 6.15e-09 | – |
| COC(C)(C)COc1cnccc1-c1[nH]c2c(c1Nc1cc(F)cc(F)c1)C(=O)NCC2 [Example 10, 3-[(3,5-difluorophenyl)amino]-2-[3-(2-methoxy-2-methylpropoxy)pyridin-4-yl]-1,5,6,7-tetrahydro-4H-pyrrolo[3,2-c]pyridin-4-one] | 12.4 | 56.9 | – | 352 | – | < 0.072 | < 0.0725 nM (4×) and 0.133 nM | – | – |
| COCCOc1cnccc1-c1[nH]c2c(c1Nc1cccc(F)c1Br)C(=O)NCC2 [Example 12, 3-[(2-bromo-3-fluorophenyl)amino]-2-[3-(2-methoxyethoxy)pyridin-4-yl]-1,5,6,7-tetrahydro-4H-pyrrolo[3,2-c]pyridin-4-one] | – | – | – | – | – | 0.0857 | 0.0857 nM | 2.18e-10 | – |
| COCCOc1cnccc1-c1[nH]c2c(c1Nc1ccccc1OC(F)(F)F)C(=O)NCC2 [Example 14, 2-[3-(2-methoxyethoxy)pyridin-4-yl]-3-{[2-(trifluoromethoxy)phenyl]amino}-1,5,6,7-tetrahydro-4H-pyrrolo[3,2-c]pyridin-4-one] | 704 | 1040 | – | 2530 | – | – | – | – | – |
| COCCOc1cnccc1-c1[nH]c2c(c1Nc1cccc(F)c1OC)C(=O)NCC2 [Example 16, 3-[(3-fluoro-2-methoxyphenyl)amino]-2-[3-(2-methoxyethoxy)pyridin-4-yl]-1,5,6,7-tetrahydro-4H-pyrrolo[3,2-c]pyridin-4-one] | 145 | 24.1 | – | 454 | – | – | – | – | – |
| COCCOc1cnccc1-c1[nH]c2c(c1Nc1cccc(F)c1OC(F)F)C(=O)NCC2 [Example 18, 3-{[2-(difluoromethoxy)-3-fluorophenyl]amino}-2-[3-(2-methoxyethoxy)pyridin-4-yl]-1,5,6,7-tetrahydro-4H-pyrrolo[3,2-c]pyridin-4-one] | 375 | – | – | – | – | – | – | – | – |
| COCCOc1cnccc1-c1[nH]c2c(c1Nc1cccc(F)c1CC(F)F)C(=O)NCC2 [Example 22, 3-{[2-(2,2-difluoroethyl)-3-fluorophenyl]amino}-2-[3-(2-methoxyethoxy)pyridin-4-yl]-1,5,6,7-tetrahydro-4H-pyrrolo[3,2-c]pyridin-4-one] | 111 | 116 | – | 1560 | – | – | – | – | – |
| COC(C)(C)COc1cnccc1-c1[nH]c2c(c1Nc1cccc(F)c1O)C(=O)NCC2 [Example 24, 3-[(3-fluoro-2-hydroxyphenyl)amino]-2-[3-(2-methoxy-2-methylpropoxy)pyridin-4-yl]-1,5,6,7-tetrahydro-4H-pyrrolo[3,2-c]pyridin-4-one] | – | – | – | – | – | 0.541 | 0.541 nM | 6.34e-10 | – |
| CCOc1c(F)cccc1Nc1c(-c2ccncc2OCCOC)[nH]c2c1C(=O)NCC2 [Example 25, 3-[(2-ethoxy-3-fluorophenyl)amino]-2-[3-(2-methoxyethoxy)pyridin-4-yl]-1,5,6,7-tetrahydro-4H-pyrrolo[3,2-c]pyridin-4-one] | 228 | – | – | 2280 | – | – | – | – | – |
| COc1c(Nc2c(-c3ccncc3OCC(C)(C)OC)[nH]c3c2C(=O)NCC3)ccc(F)c1F [Example 29, 3-[(3,4-difluoro-2-methoxyphenyl)amino]-2-[3-(2-methoxy-2-methylpropoxy)pyridin-4-yl]-1,5,6,7-tetrahydro-4H-pyrrolo[3,2-c]pyridin-4-one] | 201 | 229 | – | 2360 | – | – | – | – | – |
